Tests used:
[1] = target: T1, hRIPK1 (aa 1-375) fusion protein (Homo sapiens, UniProt Q13546); assay: Receptor-Interacting Protein Kinase 1 inhibition, ADP Glo assay (conversion of ATP to ADP due to autophosphorylation); type: biochemical; settings: ATP 50 μM, 30 min preincubation, 240 min incubation, room temperature, DMSO 1%
T1 construct: hRIPK1 (aa 1-375) fusion protein
T1 sequence (Q13546 1-375): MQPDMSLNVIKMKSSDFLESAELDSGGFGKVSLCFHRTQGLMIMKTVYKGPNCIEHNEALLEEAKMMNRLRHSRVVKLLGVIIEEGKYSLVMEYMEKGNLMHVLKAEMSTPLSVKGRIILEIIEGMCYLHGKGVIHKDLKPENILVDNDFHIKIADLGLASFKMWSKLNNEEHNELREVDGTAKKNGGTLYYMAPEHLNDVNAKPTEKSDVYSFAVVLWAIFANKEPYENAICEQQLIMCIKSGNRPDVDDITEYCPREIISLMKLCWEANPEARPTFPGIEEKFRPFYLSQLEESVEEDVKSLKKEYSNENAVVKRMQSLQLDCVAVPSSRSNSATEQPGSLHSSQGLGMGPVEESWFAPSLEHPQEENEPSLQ
Summary of the method: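 hRIPK1 (aa 1-375) fusion protein (3.6 μg/ml final) was preincubated 30 min at rt with compound (33300-1.69 nM, 1% DMSO), then 50 μM ATP was added for 240 min at rt. ADP from autophosphorylation was measured by ADP-Glo luminescence and curves fitted by nonlinear regression.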

U937 cells = assay: Cellular assay in U937 cells to measure activity of RIPK1-inhibitors on cell death (necroptosis); type: cell-based; settings: Homo sapiens, U-937, TNFα/zVAD.fmk induced cell death (necroptosis), overnight (18 to 24 hrs), 37° C., MTS readout

SMILES | IC50 [1] [nM] | IC50 (U937 cells) [nM]
N#Cc1cc(F)cc([C@@H]2CCON2C(=O)[C@H]2C[C@H](n3ccc4cc(F)ccc43)C2)c1 [Compound 105, trans-3-fluoro-5-[(3S)-2-[3-(5-fluoroindol-1-yl)cyclobutanecarbonyl]isoxazolidin-3-yl]benzonitrile] | 36 | 202
O=C([C@H]1C[C@H](n2ccc3cc(F)ccc32)C1)N1OCC[C@H]1c1cc(F)cc(F)c1 [Compound 106, trans-[(3S)-3-(3,5-difluorophenyl)isoxazolidin-2-yl]-[3-(5-fluoroindol-1-yl)cyclobutyl]methanone] | 77 | 353
N#Cc1cc(F)cc([C@@H]2CCON2C(=O)[C@H]2C[C@@H](n3ccc4cc(F)ccc43)C2)c1 [Compound 107, cis-3-fluoro-5-[(3S)-2-[3-(5-fluoroindol-1-yl)cyclobutanecarbonyl]isoxazolidin-3-yl]benzonitrile] | 19 | 214
O=C([C@H]1C[C@@H](n2ccc3cc(F)ccc32)C1)N1OCC[C@H]1c1cc(F)cc(F)c1 [Compound 108, cis-[(3S)-3-(3,5-difluorophenyl)isoxazolidin-2-yl]-[3-(5-fluoroindol-1-yl)cyclobutyl]methanone] | 26 | 94
N#Cc1cc(F)cc([C@@H]2CCON2C(=O)[C@H]2C[C@@H](n3cc4cc(F)ccc4n3)C2)c1 [Compound 109, cis-3-fluoro-5-[(3S)-2-[3-(5-fluoroindazol-2-yl)cyclobutanecarbonyl]isoxazolidin-3-yl]benzonitrile] | 55 | 745
O=C([C@H]1C[C@@H](n2cc3cc(F)ccc3n2)C1)N1OCC[C@H]1c1cc(F)cc(F)c1 [Compound 110, cis-[(3S)-3-(3,5-difluorophenyl)isoxazolidin-2-yl]-[3-(5-fluoroindazol-2-yl)cyclobutyl]methanone] | 62 | 97
NC(=O)c1ccc(F)c(OC[C@H]2CC[C@H](C(=O)N3OCC[C@H]3c3cnccn3)CC2)c1 [Compound 111, trans-4-fluoro-3-[[4-[(3S)-3-pyrazin-2-ylisoxazolidine-2-carbonyl]cyclohexyl]methoxy]benzamide] | 48 | 153

More lines, main results first:

IC50 [1] [nM] | SMILES | IC50 (U937 cells) [nM]
41 | NC(=O)c1cc(F)cc(OC[C@H]2CC[C@H](C(=O)N3OCC[C@H]3c3cnccn3)CC2)c1 [Compound 112, trans-3-fluoro-5-[[4-[(3S)-3-pyrazin-2-ylisoxazolidine-2-carbonyl]cyclohexyl]methoxy]benzamide] | 47
38 | NC(=O)c1ccc(OC[C@H]2CC[C@H](C(=O)N3OCC[C@H]3c3cnccn3)CC2)c(F)c1 [Compound 113, trans-3-fluoro-4-[[4-[(3S)-3-pyrazin-2-ylisoxazolidine-2-carbonyl]cyclohexyl]methoxy]benzamide] | 97
11 | COc1cncc([C@@H]2CCON2C(=O)[C@H]2CC[C@H](COc3cccc(C(N)=O)c3)CC2)n1 [Compound 129, trans-3-[[4-[(3S)-3-(6-methoxypyrazin-2-yl)isoxazolidine-2-carbonyl]cyclohexyl]methoxy]benzamide] | 28
37 | Cc1nc([C@@H]2CCON2C(=O)[C@H]2CC[C@H](COc3cccc(C(N)=O)c3)CC2)cs1 [Compound 130, trans-3-[[4-[(3S)-3-(2-methylthiazol-4-yl)isoxazolidine-2-carbonyl]cyclohexyl]methoxy]benzamide] | 98
47 | NC(=O)c1cccc(OC[C@H]2CC[C@H](C(=O)N3OCC[C@H]3c3ccccn3)CC2)c1 [Compound 131, trans-3-[[4-[(3S)-3-(2-pyridyl)isoxazolidine-2-carbonyl]cyclohexyl]methoxy]benzamide] | 236

Reference: patent publication US20260317312A1, “ISOXAZOLIDINES AS RIPK1 INHIBITORS AND USE THEREOF” (GENZYME CORPORATION, priority 2023, published 2026)
